According to US20120172228A1, “ALCOHOL ALKOXYLATES AS ADJUVANTS FOR AGROCHEMICAL FORMULATIONS” (SYNGENTA CROP PROTECTION, LLC, priority 2009, published 2012):

Experiments:
[1] = test system: abutilon theophrasti (ABUTH); assay: Adjuvant with herbicide nicosulfuron on ABUTH; assay type: in vivo; conditions: nicosulfuron 30 or 60 g/ha; adjuvants 0.2% of spray water; 14 and 21 days after application
Method: In this example Sample 13 from Table 1 was compared to the oil adjuvant blend Turbocharge™. The herbicide fomesafen was applied to the weed species xanthium strumarium (XANST), setaria viridis (SETVI), abutilon theophrasti (ABUTH), and chenopodium album (CHEAL) at rates of 60 or 120 grams per hectare, using a laboratory track sprayer. Each experiment was replicated four times and the percentage damage to the weeds was assessed visually at time periods of 7, 14 and 21 days after application. Each adjuvant was applied at a rate of 0.5% of the volume of the spray water. Four effects were evaluated: pesticide rate (2 levels), adjuvant type (two levels), weed species (four levels) and days after application (three levels). […] The effect of each adjuvant was pulled out from the model and the least significant differences evaluated using a Student's t method. […]
In this example the butylene oxide adjuvant Sample 13 of Table 1 was compared to the commercial oil adjuvant blend Atplus™411F. […] Each experiment was replicated four times and the percentage damage to the weeds was assessed visually at time periods of 14 and 21 days after application. […]
In this example the responses of the butylene oxide adjuvants 13, 17, 19, 21, 22 and 23 of Table 1 were measured at an application rate of 0.2% of the volume of the spray solution used. […]

[2] = test system: xanthium strumarium (XANST), setaria viridis (SETVI), abutilon theophrasti (ABUTH), chenopodium album (CHEAL); assay: Adjuvant with herbicide fomesafen, track sprayer, mean across four weed species; assay type: in vivo; conditions: fomesafen 60 or 120 g/ha; butylene oxide adjuvants 0.2%, TEHP and Turbocharge 0.5%; 7 and 13 days
Method: In this example Sample 13 from Table 1 was compared to the oil adjuvant blend Turbocharge™. The herbicide fomesafen was applied to the weed species xanthium strumarium (XANST), setaria viridis (SETVI), abutilon theophrasti (ABUTH), and chenopodium album (CHEAL) at rates of 60 or 120 grams per hectare, using a laboratory track sprayer. […] Four effects were evaluated: pesticide rate (2 levels), adjuvant type (two levels), weed species (four levels) and days after application (three levels). A standard simple linear model was constructed to judge the significance of these effects. […] A model was fitted using multiple linear regression using the statistics package JMP (SAS group). The effect of each adjuvant was pulled out from the model and the least significant differences evaluated using a Student's t method. In further examples, where a greater number than two adjuvants were compared, Tukey's HSD method was used. […]
In this example the rate response of the butylene oxide adjuvant number 13 of Table 1 was measured to display the excellent performance of this adjuvant at very low rates. compared to the adjuvant Brij™96V. […]
In this example the rate response of the butylene oxide sample 27 of Table 1 was measured, displaying the excellent performance of this adjuvant compared to the commercial adjuvant Turbocharge™, used at a rate of 0.5% by volume. […]

CCCCC(CC)COP(=O)(OCC(CC)CCCC)OCC(CC)CCCC (centres unmarked) [TEHP, tris 2-ethylhexyl phosphate]
mean efficacy (percentage damage to the weeds), ABUTH [1]: 17.92; B % | Mean kill across weeds (%) [2]: 72.7%
